We go through two compounds from patent publication US20080255078A1, “Triphenylethylene Compounds Useful as Selective Estrogen Receptor Modulators” (priority 2005, published 2008).

Each structure is given as a SMILES string.

By melting point is commonly meant the temperature of the solid-liquid transition.

In the case of `CCC(=C(c1ccc(O)cc1)c1ccc(O)cc1)c1cccc(-c2c(C)noc2C)c1` [Example 3, 4,4′-{2-[3-(3,5-Dimethyl-4-isoxazolyl)phenyl]-1-butene-1,1-diyl}diphenol], the melting point was in the range of 173 to 174 °C.

Turning to `CCC(=C(c1ccc(O)cc1)c1ccc(O)cc1)c1cccc(/C=C/C(=O)O)c1` [Example 1, (2E)-3-{3-[1-Ethyl-2,2-bis(4-hydroxyphenyl)ethenyl]phenyl}-2-propenoic acid], the melting point lay within 280 to 281 °C.
